The target of experiment [1] is T1, geranyl diphosphate C-methyltransferase (GPPMT) (Streptomyces coelicolor, UniProt Q9F1Y5). Description: radiometric methyl transfer, pentane extraction, scintillation counting. To be noted: 10 mM MgCl2, pH 7.0, 30 °C. The format is biochemical.
Experiment [2] addresses T1, geranyl diphosphate C-methyltransferase (GPPMT). Description: X-ray crystal structure, […] Å. Particulars: with SAH and Mg2+; isoprenoid substrate site. The format is binding.
For experiment [3] the target is unchanged. Description: X-ray crystal structure, […] Å. The format is binding. To be noted: with SAH and Mg2+; monomers A, D, H, J only, partial occupancy.

T1 sequence (Q9F1Y5 whole entry): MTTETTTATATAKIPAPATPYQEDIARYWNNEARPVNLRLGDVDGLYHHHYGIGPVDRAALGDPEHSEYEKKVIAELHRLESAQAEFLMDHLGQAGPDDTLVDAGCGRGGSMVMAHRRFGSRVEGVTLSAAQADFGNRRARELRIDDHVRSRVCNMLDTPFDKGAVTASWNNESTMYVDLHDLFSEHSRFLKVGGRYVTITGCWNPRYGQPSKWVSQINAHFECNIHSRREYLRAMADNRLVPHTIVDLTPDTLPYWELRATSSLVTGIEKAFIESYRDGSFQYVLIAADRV

On to `C[S+](CC[C@H](N)C(=O)O)C[C@H]1O[C@@H](n2cnc3c(N)ncnc32)[C@H](O)[C@@H]1O` (stereo partly drawn) [SAM, S-adenosyl-L-methionine], for which the KM result in experiment [1] (60 µM GPP, labelled compound) was “Kinetic parameters (Vmax and KM) were obtained for GPP and SAM”.

For `CC(C)=CCC/C(C)=C/CSP(=O)(O)OP(=O)(O)O` [GSPP, geranyl-S-thiolodiphosphate], the “X-ray crystal structure, 1.82 Å” value in experiment [2] is listed as “GSPP is bound with full occupancy in all monomers”.

Turning to `CC(C)=CCC/C(C)=C/COP(=O)(O)OP(=O)(O)O` [GPP, geranyl diphosphate], the KM result in experiment [1] (60 µM SAM) was “Kinetic parameters (Vmax and KM) were obtained for GPP and SAM”. Also, the “X-ray crystal structure, 2.05 Å” value in experiment [3] was “sufficient electron density to model GPP is observed only in monomers A, D, H, and J”.

(Values after paper PMC3323675 (Biochemistry, 2012).)
